Values belong to the molecule of their own block, whether it stands above or below them.
Assays:
Type in all cases: cell-based
PIM1 [1] = target: T1, PIM1 (Homo sapiens, UniProt P11309); test: PROTAC degradation immunoblot in PC3-dox-PIM1 cells
PIM1 [2] = target: T1, PIM1
PIM1 [3] = target: T1, PIM1; test: PROTAC degradation immunoblot in PC3-dox-PIM1 cells; remark: listed apart in the source
PIM3 = PIM3 (Homo sapiens, UniProt Q86V86); test: PROTAC degradation immunoblot in PC3 cells
PIM2 = PIM2 (Homo sapiens, UniProt Q9P1W9); test: PROTAC degradation immunoblot in PC3 cells
Sequence of PIM2 (Q9P1W9 whole entry): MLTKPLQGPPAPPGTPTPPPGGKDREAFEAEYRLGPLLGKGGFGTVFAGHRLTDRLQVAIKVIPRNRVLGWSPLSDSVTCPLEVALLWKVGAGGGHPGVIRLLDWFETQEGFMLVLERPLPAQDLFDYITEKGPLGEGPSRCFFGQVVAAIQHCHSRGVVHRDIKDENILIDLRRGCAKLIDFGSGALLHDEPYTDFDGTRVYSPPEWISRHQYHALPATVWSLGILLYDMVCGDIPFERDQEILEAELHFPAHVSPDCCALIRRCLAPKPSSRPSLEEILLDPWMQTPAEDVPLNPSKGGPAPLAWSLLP
Sequence of PIM2 (P40337 whole entry partner): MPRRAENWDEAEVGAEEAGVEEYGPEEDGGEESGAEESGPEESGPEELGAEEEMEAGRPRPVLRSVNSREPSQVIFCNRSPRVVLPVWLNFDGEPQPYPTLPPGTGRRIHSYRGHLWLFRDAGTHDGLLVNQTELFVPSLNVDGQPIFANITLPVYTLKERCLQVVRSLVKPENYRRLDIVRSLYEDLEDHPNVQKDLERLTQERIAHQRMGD

T1 sequence (P11309 whole entry): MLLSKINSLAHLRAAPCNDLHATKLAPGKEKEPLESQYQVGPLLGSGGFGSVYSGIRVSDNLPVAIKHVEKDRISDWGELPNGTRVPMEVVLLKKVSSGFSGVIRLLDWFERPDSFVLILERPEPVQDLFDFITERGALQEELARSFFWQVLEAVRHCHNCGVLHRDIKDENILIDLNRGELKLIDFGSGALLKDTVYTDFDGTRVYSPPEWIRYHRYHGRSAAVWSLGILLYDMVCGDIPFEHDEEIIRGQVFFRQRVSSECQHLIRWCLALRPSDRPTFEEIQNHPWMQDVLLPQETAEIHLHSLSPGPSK
T1 sequence (P40337 whole entry partner): as the sequence (P40337 whole entry partner) above
Sequence of PIM3 (P40337 whole entry partner): as the sequence (P40337 whole entry partner) above

PROTAC degradation immunoblot in PC3-dox-PIM1 cells (PIM1 [1]): 6.25 µM
SMILES: Cc1ncsc1-c1ccc([C@H](C)NC(=O)[C@@H]2C[C@@H](O)CN2C(=O)[C@@H](NC(=O)CCCCCCC(=O)N[C@H]2CCCN(c3c(/C=C4\SC(=O)NC4=O)cccc3-c3ccccc3)C2)C(C)(C)C)cc1 [AZD1208-VHL-01, N^1-((S)-1-(3-((Z)-(2,4-dioxothiazolidin-5-ylidene)methyl)-[1,1’-biphenyl]-2-yl)piperidin-3-yl)-N^8-((S)-1-((2S,4R)-4-hydroxy-2-(((S)-1-(4-(4-methylthiazol-5-yl)phenyl)ethyl)carbamoyl)pyrrolidin-1-yl)-3,3-dimethyl-1-oxobutan-2-yl)octanediamide]

PROTAC degradation immunoblot in PC3 cells, with VH298, MG-132, MLN4924, cis-epi (PIM1 [2]): 0.75 µM
SMILES: Cc1ncsc1-c1ccc([C@H](C)NC(=O)[C@@H]2C[C@@H](O)CN2C(=O)[C@@H](NC(=O)CCCCCCC(=O)N[C@@H]2CC(c3ccncc3NC(=O)c3ccc(F)c(-c4c(F)cccc4F)n3)C[C@H](C)C2)C(C)(C)C)cc1 (stereo partly drawn) [PIM447-VHL-01, N^1-((1S,5S)-3-(3-(6-(2,6-difluorophenyl)-5-fluoropicolinamido)pyridin-4-yl)-5-methylcyclohexyl)-N^8-((S)-1-((2S,4R)-4-hydroxy-2-(((S)-1-(4-(4-methylthiazol-5-yl)phenyl)ethyl)carbamoyl)pyrrolidin-1-yl)-3,3-dimethyl-1-oxobutan-2-yl)octanediamide]

PROTAC degradation immunoblot in PC3-dox-PIM1 cells (hook effect seen) (PIM1 [3]): 0.75 µM
SMILES: Cc1ncsc1-c1ccc([C@H](C)NC(=O)[C@@H]2C[C@@H](O)CN2C(=O)[C@@H](NC(=O)CCOCCOCCN2CCC(CNc3ccc4ncc(-c5cccc(OC(F)(F)F)c5)n4n3)CC2)C(C)(C)C)cc1 [SGI-1776-VHL-01, (2S,4R)-1-((S)-3,3-dimethyl-2-(3-(2-(2-(4-(((3-(3-(trifluoromethoxy)phenyl)imidazo[1,2-b]pyridazin-6-yl)amino)methyl)piperidin-1-yl)ethoxy)ethoxy)propanamido)butanoyl)-4-hydroxy-N-((S)-1-(4-(4-methylthiazol-5-yl)phenyl)ethyl)pyrrolidine-2-carboxamide]

PROTAC degradation immunoblot in PC3 cells, with VH298, MG-132, MLN4924, cis-epi (PIM1 [2]): 0.75 µM
PROTAC degradation immunoblot in PC3 cells (PIM3): 1.5 µM
PROTAC degradation immunoblot in PC3 cells (PIM2): 3.75 µM
SMILES: Cc1ncsc1-c1ccc([C@H](C)NC(=O)[C@@H]2C[C@@H](O)CN2C(=O)[C@@H](NC(=O)CCCCCCC(=O)N2CCC(CNc3ccc4ncc(-c5cccc(OC(F)(F)F)c5)n4n3)CC2)C(C)(C)C)cc1 [SGI-1776-VHL-02, (2S,4R)-1-((S)-3,3-dimethyl-2-(8-oxo-8-(4-(((3-(3-(trifluoromethoxy)phenyl)imidazo[1,2-b]pyridazin-6-yl)amino)methyl)piperidin-1-yl)octanamido)butanoyl)-4-hydroxy-N-((S)-1-(4-(4-methylthiazol-5-yl)phenyl)ethyl)pyrrolidine-2-carboxamide]

— article PMC10922308 (Cell chemical biology, 2023)
